These results are taken from US7618960B2, “Morpholine type cinnamide compound” (Eisai R&D Management Co., Ltd., priority 2005, dated 2009).

The subject of the experiment is Aβ42 production. Nature of the experiment: Quantification of Aβ peptide in culture of neurons from rat fetus brain (Aβ ELISA). Format: cell-based. The conditions noted are these: Neuron, 72 h; rat primary neuronal culture (cerebral cortex, embryonic day 18 Wistar rats); medium collected three days after addition of compound; Aβx-42 ELISA; read-out: Activity for reducing Aβ42 production IC50. As to the method: Quantification of Aβ Peptide in Culture of Neurons from Rat Fetus Brain
(1) Rat Primary Neuronal Culture
Primary neuronal cultures were prepared from the cerebral cortex of embryonic day 18 Wistar rats (Charles River Japan, Yokohama, Japan). Specifically, the embryos were aseptically removed from pregnant rats under ether anesthesia. The brain was isolated from the embryo and immersed in an ice-cold L-15 medium (Invitrogen Corp. Cat #11415-064, Carlsbad, Calif., USA, or SIGMA L1518, for example). The cerebral cortex was collected from the isolated brain under a stereoscopic microscope. The cerebral cortex fragments collected were enzymatically treated in an enzyme solution containing 0.25% trypsin (Invitrogen Corp. Cat #15050-065, Carlsbad, Calif., USA) and 0.01% DNase (Sigma D5025, St. Louis, Mo., USA) at 37° C. for 30 minutes to disperse the cells. Here, the enzymatic reaction was stopped by adding inactivated horse serum to the solution. The enzymatically treated solution was centrifuged at 1,500 rpm for five minutes to remove the supernatant. 5 to 10 ml of a medium was added to the resulting cell mass. Neurobasal medium (Invitrogen Corp. Cat #21103-049, Carlsbad, Calif., USA) supplemented with 2% B27 supplement (Invitrogen Corp. Cat #17504-044, Carlsbad, Calif., USA), 25 μM 2-mercaptoethanol (2-ME, WAKO Cat #139-06861, Osaka, Japan), 0.5 mM L-glutamine (Invitrogen Corp. Cat #25030-081, Carlsbad, Calif., USA), and Antibiotics-Antimycotics (Invitrogen Corp. Cat #15240-062, Carlsbad, Calif., USA) was used as the medium (Neurobasal/B27/2-ME). However, the above Neurobasal medium not supplemented with 2-ME (Neurobasal/B27) was used for the assay. The cells were redispersed by mild pipetting of the cell mass to which the medium was added. The cell dispersion was filtered through a 40-μm nylon mesh (Cell Strainer, Cat #35-2340, Becton Dickinson Labware, Franklin Lakes, N.J., USA) to remove the remaining cell mass, and thus a neuronal cell suspension was obtained. The neuronal cell suspension was diluted with the medium and then plated in a volume of 100 μl/well at an initial cell density of 5×10^5 cells/cm^2 in a 96-well polystyrene culture plate pre-coated with poly-L or D-lysine (Falcon Cat #35-3075, Becton Dickinson Labware, Franklin Lakes, N.J., USA coated with poly-L-lysine using the method shown below, or BIOCOAT™ cell environments Poly-D-lysine cell ware 96-well plate, Cat #35-6461, Becton Dickinson Labware, Franklin Lakes, N.J., USA). Poly-L-lysine coating was carried out as follows. 100 μg/ml of a poly-L-lysine (SIGMA P2636, St. Louis, Mo., USA) solution was aseptically prepared with a 0.15 M borate buffer (pH 8.5). 100 μl/well of the solution was added to the 96-well polystyrene culture plate and incubated at room temperature for one or more hours or at 4° C. overnight or longer. The coated 96-well polystyrene culture plate was washed with sterile water four or more times, and then dried or rinsed with, for example, sterile PBS or medium, and used for cell plating. The plated cells were cultured in the culture plate at 37° C. in 5% […]-95% air for one day. Then, the total amount of the medium was replaced with a fresh Neurobasal™/B27/2-ME medium, and then the cells were cultured for further three days.
The drug was added to the culture plate on Day 4 of culture as follows. The total amount of the medium was removed from the wells, and 180 μl/well of Neurobasal medium not containing 2-ME and containing 2% B-27 (Neurobasal/B27) was added thereto. A solution of the test compound in dimethyl sulfoxide (hereinafter abbreviated as DMSO) was diluted with Neurobasal/B27 so that the initial concentration was at 10-fold of the final concentration. 20 μl/well of the dilution was added to and sufficiently mixed with the medium. The final DMSO concentration was 1% or less. Only DMSO was added to the control group.
The cells were cultured for three days after addition of the compound, and the total amount of the medium was collected. […]
As a reminder, the IC50 is the concentration that inhibits the measured activity by half. Take `COc1cc(/C=C2\O[C@@H](C)CN([C@H](C)c3ccnc(F)c3F)C2=O)ccc1-n1cnc(C)c1` [Example 25, (Z)-(S)-4-[(R)-1-(2,3-difluoropyridin-4-yl)ethyl]-2-[1-[3-methoxy-4-(4-methyl-1H-imidazol-1-yl)phenyl]methylidene]-6-methylmorpholin-3-one]: the IC50 was determined as 141 nM.

Consider `COc1cc(/C=C2\O[C@@H](C)CN([C@H](c3cc(F)c(F)c(F)c3)[C@@H](C)O)C2=O)ccc1-n1cnc(C)c1` [Example 26, (Z)-(S)-4-[(1R,2R)-2-hydroxy-1-(3,4,5-trifluorophenyl)propyl]-2-[1-[3-methoxy-4-(4-methyl-1H-imidazol-1-yl)phenyl]methylidene]-6-methylmorpholin-3-one], for which the IC50 was 6 nM.

Take `COc1cc(/C=C2\OC(C)(C)CN([C@H](c3cc(F)c(F)c(F)c3)[C@@H](C)O)C2=O)ccc1-n1cnc(C)c1` [Example 27, (Z)-4-[(1R,2R)-2-hydroxy-1-(3,4,5-trifluorophenyl)propyl]-2-[1-[3-methoxy-4-(4-methyl-1H-imidazol-1-yl)phenyl]methylidene]-6,6-dimethylmorpholin-3-one]: the IC50 came out at 5 nM.

Consider `COc1cc(/C=C2\OC(C)(C)CN([C@@H](CO)c3ccc(F)cc3)C2=O)ccc1-n1cnc(C)c1` [Example 28, (Z)-4-[(R)-1-(4-fluorophenyl)-2-hydroxyethyl]-2-[1-[3-methoxy-4-(4-methyl-1H-imidazol-1-yl)phenyl]methylidene]-6,6-dimethylmorpholin-3-one], for which the IC50 was found to be 16 nM.

As to `COc1cc(/C=C2\O[C@H](C)CN([C@H](c3cc(F)c(F)c(F)c3)[C@@H](C)O)C2=O)ccc1-n1cnc(C)c1` [Example 29, (Z)-(6R)-4-[(1R,2R)-2-hydroxy-1-(3,4,5-trifluorophenyl)propyl]-2-[1-[3-methoxy-4-(4-methyl-1H-imidazol-1-yl)phenyl]methylidene]-6-methylmorpholin-3-one], the IC50 came out at 23 nM.

For `COc1cc(/C=C2\OCCN([C@H](c3cc(F)c(F)c(F)c3)[C@@H](C)O)C2=O)ccc1-n1cnc(C)c1` [Example 30, (Z)-4-[(1R,2R)-2-hydroxy-1-(3,4,5-trifluorophenyl)propyl]-2-[1-[3-methoxy-4-(4-methyl-1H-imidazol-1-yl)phenyl]methylidene]morpholin-3-one], the IC50 was 54 nM.

With `COc1cc(/C=C2\OCCN([C@H](c3ccc(F)c(F)c3)[C@@H](C)O)C2=O)ccc1-n1cnc(C)c1` [Example 31, (Z)-4-[(1R,2R)-1-(3,4-difluorophenyl)-2-hydroxypropyl]-2-[1-[3-methoxy-4-(4-methyl-1H-imidazol-1-yl)phenyl]methylidene]morpholin-3-one], the IC50 worked out at 31 nM.

For `COc1cc(/C=C2\O[C@@H](C)CN([C@H](c3ccc(F)cc3)[C@@H](C)O)C2=O)ccc1-n1cnc(C)c1` [Example 32, (Z)-(S)-4-[(1R,2R)-1-(4-fluorophenyl)-2-hydroxypropyl]-2-[1-[3-methoxy-4-(4-methyl-1H-imidazol-1-yl)phenyl]methylidene]-6-methylmorpholin-3-one], the IC50 came out at 41 nM.

Take `COc1cc(/C=C2\OC(C)(C)CN([C@H](c3ccc(F)cc3)[C@@H](C)O)C2=O)ccc1-n1cnc(C)c1` [Example 33, (Z)-4-[(1R,2R)-1-(4-fluorophenyl)-2-hydroxypropyl]-2-[1-[3-methoxy-4-(4-methyl-1H-imidazol-1-yl)phenyl]methylidene]-6,6-dimethylmorpholin-3-one]: the IC50 is 63 nM.

As for `COc1cc(/C=C2\O[C@@H](C)CN([C@H](c3ccc(F)c(F)c3)[C@@H](C)O)C2=O)ccc1-n1cnc(C)c1` [Example 34, (Z)-(S)-4-[(1R,2R)-1-(3,4-difluorophenyl)-2-hydroxypropyl]-2-[1-[3-methoxy-4-(4-methyl-1H-imidazol-1-yl)phenyl]methylidene]-6-methylmorpholin-3-one], the IC50 stood at 23 nM.

Take `COc1cc(/C=C2\OC(C)(C)CN([C@H](c3ccc(F)c(F)c3)[C@@H](C)O)C2=O)ccc1-n1cnc(C)c1` [Example 35, (Z)-4-[(1R,2R)-1-(3,4-difluorophenyl)-2-hydroxypropyl]-2-[1-[3-methoxy-4-(methylimidazol-1-yl)phenyl]methylidene]-6,6-dimethylmorpholin-3-one]: the IC50 came to 23 nM.

Regarding `COc1cc(/C=C2\O[C@@H](C)CN([C@](C)(CO)c3cc(F)c(F)c(F)c3)C2=O)ccc1-n1cnc(C)c1` [Example 36, (Z)-(S)-4-[(S)-2-hydroxy-1-methyl-1-(3,4,5-trifluorophenyl)ethyl]-2-[1-[3-methoxy-4-(4-methyl-1H-imidazol-1-yl)phenyl]methylidene]-6-methylmorpholin-3-one], the IC50 was 109 nM.

Consider `COc1cc(/C=C2\O[C@@H](C)CN([C@@H](C)c3cc(F)c(F)c(F)c3)C2=O)ccc1-n1cnc(C)c1` [Example 37, (Z)-(6S)-2-[1-[3-methoxy-4-(4-methyl-1H-imidazol-1-yl)phenyl]methylidene]-6-methyl-4-[(S)-1-(3,4,5-trifluorophenyl)ethyl]morpholin-3-one], for which the IC50 turned out to be 20 nM.

Regarding `COc1cc(/C=C2\O[C@@H](C)CN(C(C)(C)c3ccc(F)cc3)C2=O)ccc1-n1cnc(C)c1` [Example 38, (Z)-(6S)-4-[1-(4-fluorophenyl)-1-methylethyl]-2-[1-[3-methoxy-4-(4-methyl-1H-imidazol-1-yl)phenyl]methylidene]-6-methylmorpholin-3-one], the IC50 was found to be 52 nM.

As for `COc1cc(/C=C2\O[C@@H](C)CN(C3(c4ccc(F)cc4)CC3)C2=O)ccc1-n1cnc(C)c1` [Example 39, (Z)-(6S)-4-[1-(4-fluorophenyl)cyclopropyl]-2-[1-[3-methoxy-4-(4-methyl-1H-imidazol-1-yl)phenyl]methylidene]-6-methylmorpholin-3-one], the IC50 was determined as 130 nM.

In the case of `COc1cc(/C=C2\OC[C@H]3CCC[C@@H](c4cc(F)c(F)c(F)c4)N3C2=O)ccc1-n1cnc(C)c1` [Example 40], the IC50 turned out to be 100 nM.

Consider `COc1cc(/C=C2\OC[C@H]3CCC[C@@H](c4ccc(F)c(F)c4)N3C2=O)ccc1-n1cnc(C)c1` [Example 41], for which the half-inhibitory concentration (IC50) was 141 nM.

Regarding `COc1cc(/C=C2\O[C@@H](C)CN([C@@H](C)c3ccnc(Cl)c3)C2=O)ccc1-n1cnc(C)c1` [Example 51, (Z)-(S)-4-[(S)-1-(2-chloropyridin-4-yl)ethyl]-2-[1-[3-methoxy-4-(4-methyl-1H-imidazol-1-yl)phenyl]methylidene]-6-methylmorpholin-3-one], the IC50 came to 67 nM.

Take `COc1cc(/C=C2\O[C@@H](C)CN([C@@H](C)c3ccnc(Cl)c3F)C2=O)ccc1-n1cnc(C)c1` [Example 52, (Z)-(S)-4-[(S)-1-(2-chloro-3-fluoropyridin-4-yl)ethyl]-2-[1-[3-methoxy-4-(4-methyl-1H-imidazol-1-yl)phenyl]methylidene]-6-methylmorpholin-3-one]: the IC50 was found to be 86 nM.

Regarding `COc1cc(/C=C2\O[C@@H](C)CN([C@@H](C)c3cc(F)nc(F)c3)C2=O)ccc1-n1cnc(C)c1` [Example 53, (Z)-(S)-4-[(S)-1-(2,6-difluoropyridin-4-yl)ethyl]-2-[1-[3-methoxy-4-(4-methyl-1H-imidazol-1-yl)phenyl]methylidene]-6-methylmorpholin-3-one], the IC50 was determined as 40 nM.
